# Data published in PubChem BioAssay (NCI).
#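 Briefly, cells in 96-well plates were exposed to five compound concentrations for 48 h, and endpoints were estimated by linear interpolation. GI50 marks 50% less growth. Definition used: TGI = concentration required for complete inhibition of growth.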
# Columns and labels:
# Assay in all cases: DTP human tumour cell line panel, 48 h
# OVCAR-8 ovarian = system: OVCAR-8 ovarian
# NCI-H460 lung = system: NCI-H460 lung
# SF-268 CNS = system: SF-268 CNS
# COLO 205 colon = system: COLO 205 colon
# HS 578T breast = system: HS 578T breast
# KM12 colon = system: KM12 colon
# MDA-MB-231 breast = system: MDA-MB-231 breast
# A498 renal = system: A498 renal
# UO-31 renal = system: UO-31 renal
# 786-0 renal = system: 786-0 renal
# HCT-116 colon = system: HCT-116 colon
# SK-MEL-28 melanoma = system: SK-MEL-28 melanoma
# HL-60(TB) leukemia = system: HL-60(TB) leukemia
# HCC-2998 colon = system: HCC-2998 colon
# SK-MEL-5 melanoma = system: SK-MEL-5 melanoma
# ACHN renal = system: ACHN renal
# RPMI-8226 leukemia = system: RPMI-8226 leukemia
# DU-145 prostate = system: DU-145 prostate
# U251 CNS = system: U251 CNS
# NCI/ADR-RES ovarian = system: NCI/ADR-RES ovarian
# MOLT-4 leukemia = system: MOLT-4 leukemia
# PC-3 prostate = system: PC-3 prostate
# HOP-62 NSCLC = system: HOP-62 NSCLC
# BT-549 breast = system: BT-549 breast
# MCF7 breast = system: MCF7 breast
# NCI-H226 lung = system: NCI-H226 lung
# TK-10 renal = system: TK-10 renal
# SK-MEL-2 melanoma = system: SK-MEL-2 melanoma
# OVCAR-3 ovarian = system: OVCAR-3 ovarian
# CAKI-1 renal = system: CAKI-1 renal
# MALME-3M melanoma = system: MALME-3M melanoma
# K-562 leukemia = system: K-562 leukemia
# HCT-15 colon = system: HCT-15 colon
# SK-OV-3 ovarian = system: SK-OV-3 ovarian
# LOX IMVI melanoma = system: LOX IMVI melanoma
# HT29 colon = system: HT29 colon
# OVCAR-4 ovarian = system: OVCAR-4 ovarian
# HOP-92 NSCLC = system: HOP-92 NSCLC
# SN12C renal = system: SN12C renal
# SNB-75 CNS = system: SNB-75 CNS
# M14 melanoma = system: M14 melanoma
# SW-620 colon = system: SW-620 colon
# NCI-H23 lung = system: NCI-H23 lung
# IGROV1 ovarian = system: IGROV1 ovarian
# SF-539 CNS = system: SF-539 CNS
# SR leukemia = system: SR leukemia
# SF-295 CNS = system: SF-295 CNS
# RXF 393 renal = system: RXF 393 renal
# OVCAR-5 ovarian = system: OVCAR-5 ovarian
# UACC-62 melanoma = system: UACC-62 melanoma
# T-47D breast = system: T-47D breast
# SNB-19 CNS = system: SNB-19 CNS
# MDA-MB-435 = system: MDA-MB-435
smiles,measurement,setting,value
C/C(=N\NC(=O)c1ccccc1N)c1ccccc1O,GI50,OVCAR-8 ovarian,3.16 µM
same,TGI,OVCAR-8 ovarian,> 100 µM
same,GI50,NCI-H460 lung,1.65 µM
same,TGI,NCI-H460 lung,> 100 µM
same,GI50,SF-268 CNS,3.05 µM
same,TGI,SF-268 CNS,> 100 µM
same,GI50,COLO 205 colon,3.23 µM
same,TGI,COLO 205 colon,> 100 µM
same,GI50,HS 578T breast,16.7 µM
same,TGI,HS 578T breast,> 100 µM
same,GI50,KM12 colon,3.92 µM
same,TGI,KM12 colon,> 100 µM
same,GI50,MDA-MB-231 breast,5.24 µM
same,TGI,MDA-MB-231 breast,> 100 µM
same,GI50,A498 renal,10.4 µM
same,TGI,A498 renal,> 100 µM
same,GI50,UO-31 renal,1.94 µM
same,TGI,UO-31 renal,> 100 µM
same,GI50,786-0 renal,5.37 µM
same,TGI,786-0 renal,80.4 µM
same,GI50,HCT-116 colon,2.4 µM
same,TGI,HCT-116 colon,> 100 µM
same,GI50,SK-MEL-28 melanoma,8.44 µM
same,TGI,SK-MEL-28 melanoma,> 100 µM
same,GI50,HL-60(TB) leukemia,3.01 µM
same,TGI,HL-60(TB) leukemia,> 100 µM
same,GI50,HCC-2998 colon,5.8 µM
same,TGI,HCC-2998 colon,> 100 µM
same,GI50,SK-MEL-5 melanoma,3.83 µM
same,TGI,SK-MEL-5 melanoma,57.7 µM
same,GI50,ACHN renal,2.63 µM
same,TGI,ACHN renal,> 100 µM
same,GI50,RPMI-8226 leukemia,9.51 µM
same,TGI,RPMI-8226 leukemia,> 100 µM
same,GI50,DU-145 prostate,4.67 µM
same,TGI,DU-145 prostate,> 100 µM
same,GI50,U251 CNS,2.21 µM
same,TGI,U251 CNS,> 100 µM
same,GI50,NCI/ADR-RES ovarian,4.52 µM
same,TGI,NCI/ADR-RES ovarian,> 100 µM
same,GI50,MOLT-4 leukemia,3.17 µM
same,TGI,MOLT-4 leukemia,> 100 µM
same,GI50,PC-3 prostate,6.95 µM
same,TGI,PC-3 prostate,> 100 µM
same,GI50,HOP-62 NSCLC,4.4 µM
same,TGI,HOP-62 NSCLC,> 100 µM
same,GI50,BT-549 breast,14.9 µM
same,TGI,BT-549 breast,> 100 µM
same,GI50,MCF7 breast,2.71 µM
same,TGI,MCF7 breast,> 100 µM
same,GI50,NCI-H226 lung,5.14 µM
same,TGI,NCI-H226 lung,> 100 µM
same,GI50,TK-10 renal,1.5 µM
same,TGI,TK-10 renal,> 100 µM
same,GI50,SK-MEL-2 melanoma,12.5 µM
same,TGI,SK-MEL-2 melanoma,> 100 µM
same,GI50,OVCAR-3 ovarian,2.79 µM
same,TGI,OVCAR-3 ovarian,> 100 µM
same,GI50,CAKI-1 renal,2.34 µM
same,TGI,CAKI-1 renal,> 100 µM
same,GI50,MALME-3M melanoma,19.4 µM
same,TGI,MALME-3M melanoma,> 100 µM
same,GI50,K-562 leukemia,3.72 µM
same,TGI,K-562 leukemia,> 100 µM
same,GI50,HCT-15 colon,1.44 µM
same,TGI,HCT-15 colon,> 100 µM
same,GI50,SK-OV-3 ovarian,13.4 µM
same,TGI,SK-OV-3 ovarian,> 100 µM
same,GI50,LOX IMVI melanoma,4.09 µM
same,TGI,LOX IMVI melanoma,> 100 µM
same,GI50,HT29 colon,8.58 µM
same,TGI,HT29 colon,> 100 µM
same,GI50,OVCAR-4 ovarian,2.14 µM
same,TGI,OVCAR-4 ovarian,> 100 µM
same,GI50,HOP-92 NSCLC,24.7 µM
same,TGI,HOP-92 NSCLC,> 100 µM
same,GI50,SN12C renal,5.25 µM
same,TGI,SN12C renal,> 100 µM
same,GI50,SNB-75 CNS,> 100 µM
same,TGI,SNB-75 CNS,> 100 µM
same,GI50,M14 melanoma,4.29 µM
same,TGI,M14 melanoma,57.5 µM
same,GI50,SW-620 colon,5.05 µM
same,TGI,SW-620 colon,> 100 µM
same,GI50,NCI-H23 lung,7.33 µM
same,TGI,NCI-H23 lung,> 100 µM
same,GI50,IGROV1 ovarian,3.56 µM
same,TGI,IGROV1 ovarian,> 100 µM
same,GI50,SF-539 CNS,3.26 µM
same,TGI,SF-539 CNS,> 100 µM
same,GI50,SR leukemia,2.83 µM
same,TGI,SR leukemia,66.6 µM
same,GI50,SF-295 CNS,3.23 µM
same,TGI,SF-295 CNS,> 100 µM
same,GI50,RXF 393 renal,11.2 µM
same,TGI,RXF 393 renal,> 100 µM
same,GI50,OVCAR-5 ovarian,4.45 µM
same,TGI,OVCAR-5 ovarian,> 100 µM
same,GI50,UACC-62 melanoma,3.39 µM
same,TGI,UACC-62 melanoma,47.5 µM
same,GI50,T-47D breast,2.6 µM
same,TGI,T-47D breast,> 100 µM
same,GI50,SNB-19 CNS,9.72 µM
same,TGI,SNB-19 CNS,> 100 µM
same,GI50,MDA-MB-435,8.53 µM
same,TGI,MDA-MB-435,> 100 µM
